{"source": "patent US20250170114A1", "about": "“METHODS OF TREATMENT USING T-TYPE CALCIUM CHANNEL MODULATORS” (Praxis Precision Medicines, Inc., priority 2022, published 2025)", "test_system": "participants with ET", "assay": "Phase 2 trial: treatment-emergent adverse events (TEAEs)", "assay_type": "in vivo", "text": "Part A of the clinical trial was open-label and assessed the safety and tolerability of the study drug, as well as the overall magnitude and pattern of change in ET severity.\nPart B of the clinical trial consisted of both an open-label titration phase and a randomized, double-blind, placebo-controlled withdrawal phase. Part B assessed the safety and tolerability of the study drug, as well as the overall magnitude and pattern of change in ET severity and the duration of that effect. […] In the randomized, double-blind, placebo-controlled withdrawal phase, participants were either maintained on their final open-label dose or switched to placebo for an additional 14 days (Days 43 to 56).\nKey safety measures included clinical laboratory evaluations, 12-lead ECG, C-SSRS, and vital signs. Key efficacy assessments included the TETRAS Performance subscale, TETRAS Upper Limb using accelerometry, CGI, and PGI-C. Blood samples were obtained for the determination of study drug plasma concentrations using a validated bioanalytical method and may also be used for method development and/or metabolite characterization.\nOn Day 1, participants received a 20 mg dose of study drug on an empty stomach (at least 1 hour before breakfast). Participants remained in a clinical setting under medical observation for approximately 6 hours. TETRAS Performance assessments were performed before dosing and 6 hours (±2) post-dose. For dosing on Day 2 through Day 41, participants were instructed to dose QAM at least 1 hour before breakfast at home. Participants continued taking study drug 20 mg QAM at home through Day 3. […] On Day 4, participants escalated to 40 mg QAM through Day 7, when they returned to the clinic for safety assessments and efficacy testing. On Day 8, participants escalated to 60 mg QAM through Day 14. […] On Day 15, participants escalated to 80 mg QAM through Day 21, when they returned to the clinic for safety assessments and efficacy testing. On Day 22, participants escalated to 100 mg QAM through Day 28. […] On Day 29, participants escalated to 120 mg QAM through Day 42, when they returned to the clinic for safety assessments and efficacy testing. The dose on Day 42 was taken in the clinic. On Day 35, participants received a telephone call from site staff to inquire about AEs and concomitant medications. On Day 41, participants completed a TETRAS Performance Upper Limb assessment via a telehealth visit. […] Participants could only change to a lower dose level once, and no dose changes were allowed to occur after Day 36.\nIn both phases, key safety measures included clinical laboratory evaluations, 12-lead ECG, C-SSRS, and vital signs. Key efficacy assessments included the TETRAS Performance subscale, TETRAS Upper Limb using accelerometry, CGI, PGI-C, TETRAS ADL Subscale, QUEST, BDI-II, and BAI. Blood samples were obtained for the determination of study drug and metabolite plasma concentrations.", "key": {"[1]": {"conditions": "Part A, Overall, N = 7, listed as study drug"}, "[2]": {"conditions": "Part B - RWD, study drug group, N = 6"}}, "data": [{"smiles": "CC(C)(C)NC(=O)CN1CCC(CNC(=O)c2cc(F)cc(Cl)c2)CC1.Cl", "note": "[Study drug]", "values": [{"measurement": "Drug-related TEAE dizziness", "setting": "Part A", "result": 3, "unit": "participants"}, {"measurement": "participants experiencing TEAEs considered related to study drug", "setting": "Part A", "result": 57.1, "unit": "%"}, {"measurement": "participants who experienced at least 1 TEAE", "setting": "Part A", "result": 85.7, "unit": "%"}, {"measurement": "Any TEAE", "setting": "Part A (overall), N = 7", "result": "6 (85.7) n (%)"}, {"measurement": "Any TEAE leading to study drug withdrawal", "setting": "Part A (overall), N = 7", "result": "1 (14.3) n (%)"}, {"measurement": "Any TEAE related to disease under study", "setting": "Part A (overall), N = 7", "result": "1 (14.3) n (%)"}, {"measurement": "Any TEAE related to study drug", "setting": "Part A (overall), N = 7", "result": "4 (57.1) n (%)"}, {"measurement": "Any TEAE related to study procedure", "setting": "Part A (overall), N = 7", "result": "0 n (%)"}, {"measurement": "Any fatal SAEs", "setting": "Part A (overall), N = 7", "result": "0 n (%)"}, {"measurement": "Any serious adverse events", "setting": "Part A (overall), N = 7", "result": "0 n (%)"}, {"measurement": "TEAE Mild", "setting": "Part A (overall), N = 7", "result": "6 (85.7) n (%)"}, {"measurement": "TEAE Moderate", "setting": "Part A (overall), N = 7", "result": "1 (14.3) n (%)"}, {"measurement": "TEAE Severe", "setting": "Part A (overall), N = 7", "result": "0 n (%)"}, {"measurement": "participants who experienced AEs leading to study drug withdrawal", "setting": "Part A and open-label titration phase of Part B together", "result": 7, "unit": "participants"}, {"measurement": "Any TEAE", "setting": "Part A, 20 mg, N = 7", "result": "6 (85.7) n (%)"}, {"measurement": "TEAE PT Dizziness", "setting": "Part A, 20 mg, N = 7", "result": "4 (57.1) n (%)"}, {"measurement": "TEAE PT Headache", "setting": "Part A, 20 mg, N = 7", "result": "3 (42.9) n (%)"}, {"measurement": "TEAE SOC Nervous System Disorders", "setting": "Part A, 20 mg, N = 7", "result": "6 (85.7) n (%)"}, {"measurement": "TEAE SOC Psychiatric Disorders", "setting": "Part A, 20 mg, N = 7", "result": "2 (28.6) n (%)"}, {"measurement": "Any TEAE", "setting": "Part A, 40 mg, N = 6", "result": "2 (33.3) n (%)"}, {"measurement": "TEAE PT Dizziness", "setting": "Part A, 40 mg, N = 6", "result": "0 n (%)"}, {"measurement": "TEAE PT Headache", "setting": "Part A, 40 mg, N = 6", "result": "1 (16.7) n (%)"}, {"measurement": "TEAE SOC Nervous System Disorders", "setting": "Part A, 40 mg, N = 6", "result": "1 (16.7) n (%)"}, {"measurement": "TEAE SOC Psychiatric Disorders", "setting": "Part A, 40 mg, N = 6", "result": "0 n (%)"}, {"measurement": "Any TEAE", "setting": "Part A, Overall, N = 7", "result": "6 (85.7) n (%)"}, {"measurement": "TEAE PT Dizziness", "setting": "Part A, Overall, N = 7", "result": "4 (57.1) n (%)"}, {"measurement": "TEAE PT Headache", "setting": "Part A, Overall, N = 7", "result": "3 (42.9) n (%)"}, {"measurement": "TEAE SOC Nervous System Disorders", "setting": "Part A, Overall, N = 7", "result": "6 (85.6) n (%)"}, {"measurement": "TEAE SOC Psychiatric Disorders", "setting": "Part A, Overall, N = 7", "result": "2 (28.6) n (%)"}, {"measurement": "Any TEAE leading to study drug withdrawal", "setting": "[1]", "result": "1 n (%)"}, {"measurement": "TEAE PT Dizziness", "setting": "[1]", "result": "4 n (%)"}, {"measurement": "TEAE PT Headache", "setting": "[1]", "result": "3 n (%)"}, {"measurement": "Any TEAE", "setting": "Part B - OLT, N = 17", "result": "15 n (%)"}, {"measurement": "Any TEAE leading to study drug withdrawal", "setting": "Part B - OLT, N = 17", "result": "6 n (%)"}, {"measurement": "Any TEAE related to disease under study", "setting": "Part B - OLT, N = 17", "result": "1 n (%)"}, {"measurement": "Any TEAE related to study drug", "setting": "Part B - OLT, N = 17", "result": "12 n (%)"}, {"measurement": "Any TEAE related to study procedure", "setting": "Part B - OLT, N = 17", "result": "0 n (%)"}, {"measurement": "Any fatal SAEs", "setting": "Part B - OLT, N = 17", "result": "0 n (%)"}, {"measurement": "Any serious adverse events", "setting": "Part B - OLT, N = 17", "result": "1 n (%)"}, {"measurement": "TEAE Mild", "setting": "Part B - OLT, N = 17", "result": "13 n (%)"}, {"measurement": "TEAE Moderate", "setting": "Part B - OLT, N = 17", "result": "7 n (%)"}, {"measurement": "TEAE Severe", "setting": "Part B - OLT, N = 17", "result": "0 n (%)"}, {"measurement": "Any TEAE", "setting": "[2]", "result": "1 (16.7) n (%)"}, {"measurement": "Any TEAE leading to study drug withdrawal", "setting": "[2]", "result": "0 n (%)"}, {"measurement": "Any TEAE related to disease under study", "setting": "[2]", "result": "0 n (%)"}, {"measurement": "Any TEAE related to study drug", "setting": "[2]", "result": "0 n (%)"}, {"measurement": "Any TEAE related to study procedure", "setting": "[2]", "result": "0 n (%)"}, {"measurement": "Any fatal SAEs", "setting": "[2]", "result": "0 n (%)"}, {"measurement": "Any serious adverse events", "setting": "[2]", "result": "0 n (%)"}, {"measurement": "TEAE Mild", "setting": "[2]", "result": "1 (16.7) n (%)"}, {"measurement": "TEAE Moderate", "setting": "[2]", "result": "1 (16.7) n (%)"}, {"measurement": "TEAE Severe", "setting": "[2]", "result": "0 n (%)"}, {"measurement": "Any TEAE", "setting": "Part B - RWD, study drug group, N = 6, listed as study drug", "result": "1 n (%)"}, {"measurement": "Any TEAE", "setting": "Part B, 20 mg, N = 17", "result": "10 n (%)"}, {"measurement": "PT Cognitive disorder", "setting": "Part B, 20 mg, N = 17", "result": "2 n (%)"}, {"measurement": "PT Constipation", "setting": "Part B, 20 mg, N = 17", "result": "1 n (%)"}, {"measurement": "PT Dizziness", "setting": "Part B, 20 mg, N = 17", "result": "4 n (%)"}, {"measurement": "PT Fatigue", "setting": "Part B, 20 mg, N = 17", "result": "2 n (%)"}, {"measurement": "PT Insomnia", "setting": "Part B, 20 mg, N = 17", "result": "1 n (%)"}, {"measurement": "SOC Gastrointestinal Disorders", "setting": "Part B, 20 mg, N = 17", "result": "3 n (%)"}, {"measurement": "SOC General Disorders and Administration Site Conditions", "setting": "Part B, 20 mg, N = 17", "result": "2 n (%)"}, {"measurement": "SOC Musculoskeletal and Connective Tissue Disorders", "setting": "Part B, 20 mg, N = 17", "result": "1 n (%)"}, {"measurement": "SOC Nervous System Disorders", "setting": "Part B, 20 mg, N = 17", "result": "8 n (%)"}, {"measurement": "SOC Psychiatric Disorders", "setting": "Part B, 20 mg, N = 17", "result": "1 n (%)"}, {"measurement": "SOC Vascular Disorders", "setting": "Part B, 20 mg, N = 17", "result": "0 n (%)"}, {"measurement": "Any TEAE", "setting": "Part B, 40 mg, N = 15", "result": "8 n (%)"}, {"measurement": "PT Cognitive disorder", "setting": "Part B, 40 mg, N = 15", "result": "1 n (%)"}, {"measurement": "PT Constipation", "setting": "Part B, 40 mg, N = 15", "result": "3 n (%)"}, {"measurement": "PT Dizziness", "setting": "Part B, 40 mg, N = 15", "result": "1 n (%)"}, {"measurement": "PT Fatigue", "setting": "Part B, 40 mg, N = 15", "result": "1 n (%)"}, {"measurement": "PT Insomnia", "setting": "Part B, 40 mg, N = 15", "result": "2 n (%)"}, {"measurement": "SOC Gastrointestinal Disorders", "setting": "Part B, 40 mg, N = 15", "result": "3 n (%)"}, {"measurement": "SOC General Disorders and Administration Site Conditions", "setting": "Part B, 40 mg, N = 15", "result": "2 n (%)"}, {"measurement": "SOC Musculoskeletal and Connective Tissue Disorders", "setting": "Part B, 40 mg, N = 15", "result": "0 n (%)"}]}]}
